Literature values as cited in US20050202101A1, “Method and composition for preventing or reducing the symptoms of insulin resistance syndrome” (Interhealth Nutraceuticals Incorporated, priority 2001, published 2005).

System: obese women
Details: with exercise

## chromium picolinate
  body weight change: significant weight gain
